# Reference: the supplement of paper PMC10307832
# Columns and labels:
# Test in all cases: relative viability (nuclei count vs DMSO), 5 days (fraction); higher = more cells survive
# NCI-H1355 = tested on: NCI-H1355
# Method in brief: (§1)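 Lung cancer cell lines in 1536-well plates got either a single drug or a fixed anchor-drug dose together with five library-drug doses (not always all listed) in √10 steps, by pin tool, on the day after seeding. Nuclei were counted after 5 days, and relative viability is the treated-to-vehicle ratio of nuclei counts. Values are medians of duplicate plates.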
# NCI-H2085 = tested on: NCI-H2085
# Method in brief: as §1
# NCI-H1915 = tested on: NCI-H1915
# Method in brief: as §1
# LC-2-ad = tested on: LC-2-ad
# Method in brief: as §1
# ChaGo-K-1 = tested on: ChaGo-K-1
# Method in brief: as §1
# NCI-H23 = tested on: NCI-H23
# Method in brief: as §1
# NCI-H1651 = tested on: NCI-H1651
# Method in brief: as §1
# NCI-H2126 = tested on: NCI-H2126
# Method in brief: as §1
# A-427 = tested on: A-427
# Method in brief: as §1
# COR-L23 = tested on: COR-L23
# Method in brief: as §1
# SK-MES-1 = tested on: SK-MES-1
# Method in brief: as §1
# NCI-H1993 = tested on: NCI-H1993
# Method in brief: as §1
# HOP-62 = tested on: HOP-62
# Method in brief: as §1
# COR-L 105 = tested on: COR-L 105
# Method in brief: as §1
# NCI-H647 = tested on: NCI-H647
# Method in brief: as §1
# NCI-H322M = tested on: NCI-H322M
# Method in brief: as §1
# LCLC-103H = tested on: LCLC-103H
# Method in brief: as §1
# HCC-44 = tested on: HCC-44
# Method in brief: as §1
# NCI-H2087 = tested on: NCI-H2087
# Method in brief: as §1
# NCI-H520 = tested on: NCI-H520
# Method in brief: as §1
# 201T = tested on: 201T
# Method in brief: as §1
# H3255 = tested on: H3255
# Method in brief: as §1
# RERF-LC-KJ = tested on: RERF-LC-KJ
# Method in brief: as §1
# NCI-H441 = tested on: NCI-H441
# Method in brief: as §1
structure (smiles),measurement,setting,value
Nc1cccc2c1CN(C1CCC(=O)NC1=O)C2=O (stereo not drawn) [Lenalidomide] + CS(=O)(=O)N1CCN(Cc2cc3nc(-c4cccc5[nH]ncc45)nc(N4CCOCC4)c3s2)CC1 [Pictilisib] (partner 1 µM),relative viability,NCI-H1355; first compound 0.253 µM,0.419
same,relative viability,NCI-H1355; first compound 0.8 µM,0.258
same,relative viability,NCI-H1355; first compound 2.53 µM,0.429
same,relative viability,NCI-H1355; first compound 8 µM,0.259
same,relative viability,NCI-H2085; first compound 0.253 µM,0.451
same,relative viability,NCI-H2085; first compound 0.8 µM,0.409
same,relative viability,NCI-H2085; first compound 2.53 µM,0.428
same,relative viability,NCI-H2085; first compound 8 µM,0.371
same,relative viability,NCI-H1915; first compound 0.253 µM,0.9
same,relative viability,NCI-H1915; first compound 0.8 µM,0.793
same,relative viability,NCI-H1915; first compound 2.53 µM,1
same,relative viability,NCI-H1915; first compound 8 µM,0.857
same,relative viability,LC-2-ad; first compound 0.253 µM,0.434
same,relative viability,LC-2-ad; first compound 0.8 µM,0.487
same,relative viability,LC-2-ad; first compound 2.53 µM,0.467
same,relative viability,LC-2-ad; first compound 8 µM,0.538
same,relative viability,ChaGo-K-1; first compound 0.253 µM,0.791
same,relative viability,ChaGo-K-1; first compound 2.53 µM,0.739
same,relative viability,ChaGo-K-1; first compound 8 µM,0.625
same,relative viability,NCI-H23; first compound 0.253 µM,0.372
same,relative viability,NCI-H23; first compound 0.8 µM,0.576
same,relative viability,NCI-H23; first compound 2.53 µM,0.523
same,relative viability,NCI-H23; first compound 8 µM,0.378
same,relative viability,NCI-H1651; first compound 0.253 µM,0.674
same,relative viability,NCI-H1651; first compound 0.8 µM,0.574
same,relative viability,NCI-H1651; first compound 2.53 µM,0.735
same,relative viability,NCI-H1651; first compound 8 µM,0.691
same,relative viability,NCI-H2126; first compound 0.253 µM,0.501
same,relative viability,NCI-H2126; first compound 0.8 µM,0.423
same,relative viability,NCI-H2126; first compound 2.53 µM,0.458
same,relative viability,NCI-H2126; first compound 8 µM,0.421
same,relative viability,A-427; first compound 0.253 µM,0.796
same,relative viability,A-427; first compound 2.53 µM,0.744
same,relative viability,A-427; first compound 8 µM,0.676
same,relative viability,COR-L23; first compound 0.253 µM,0.778
same,relative viability,COR-L23; first compound 0.8 µM,0.7
same,relative viability,COR-L23; first compound 2.53 µM,0.924
same,relative viability,COR-L23; first compound 8 µM,0.64
same,relative viability,SK-MES-1; first compound 0.253 µM,0.373
same,relative viability,SK-MES-1; first compound 0.8 µM,0.482
same,relative viability,SK-MES-1; first compound 2.53 µM,0.403
same,relative viability,SK-MES-1; first compound 8 µM,0.336
same,relative viability,NCI-H1993; first compound 0.253 µM,0.824
same,relative viability,NCI-H1993; first compound 0.8 µM,0.827
same,relative viability,NCI-H1993; first compound 2.53 µM,0.872
same,relative viability,NCI-H1993; first compound 8 µM,0.803
same,relative viability,HOP-62; first compound 0.253 µM,0.627
same,relative viability,HOP-62; first compound 0.8 µM,0.834
same,relative viability,HOP-62; first compound 2.53 µM,0.922
same,relative viability,HOP-62; first compound 8 µM,0.535
same,relative viability,COR-L 105; first compound 0.253 µM,0.278
same,relative viability,COR-L 105; first compound 0.8 µM,0.398
same,relative viability,COR-L 105; first compound 2.53 µM,0.554
same,relative viability,COR-L 105; first compound 8 µM,0.363
same,relative viability,NCI-H647; first compound 0.253 µM,0.417
same,relative viability,NCI-H647; first compound 2.53 µM,0.535
same,relative viability,NCI-H647; first compound 8 µM,0.281
same,relative viability,NCI-H322M; first compound 0.253 µM,0.511
same,relative viability,NCI-H322M; first compound 0.8 µM,0.596
same,relative viability,NCI-H322M; first compound 2.53 µM,0.546
same,relative viability,NCI-H322M; first compound 8 µM,0.49
same,relative viability,LCLC-103H; first compound 0.253 µM,0.603
same,relative viability,LCLC-103H; first compound 0.8 µM,0.547
same,relative viability,LCLC-103H; first compound 2.53 µM,0.621
same,relative viability,LCLC-103H; first compound 8 µM,0.556
same,relative viability,HCC-44; first compound 0.253 µM,0.525
same,relative viability,HCC-44; first compound 0.8 µM,0.409
same,relative viability,HCC-44; first compound 2.53 µM,0.58
same,relative viability,HCC-44; first compound 8 µM,0.433
same,relative viability,NCI-H2087; first compound 0.253 µM,0.982
same,relative viability,NCI-H2087; first compound 0.8 µM,0.436
same,relative viability,NCI-H2087; first compound 2.53 µM,0.972
same,relative viability,NCI-H2087; first compound 8 µM,0.732
same,relative viability,NCI-H520; first compound 0.253 µM,0.353
same,relative viability,NCI-H520; first compound 0.8 µM,0.362
same,relative viability,NCI-H520; first compound 2.53 µM,0.293
same,relative viability,NCI-H520; first compound 8 µM,0.259
same,relative viability,201T; first compound 0.253 µM,0.72
same,relative viability,201T; first compound 0.8 µM,0.532
same,relative viability,201T; first compound 2.53 µM,0.678
same,relative viability,201T; first compound 8 µM,0.603
same,relative viability,H3255; first compound 0.253 µM,0.459
same,relative viability,H3255; first compound 0.8 µM,0.519
same,relative viability,H3255; first compound 2.53 µM,0.526
same,relative viability,H3255; first compound 8 µM,0.406
same,relative viability,RERF-LC-KJ; first compound 0.253 µM,0.494
same,relative viability,RERF-LC-KJ; first compound 0.8 µM,0.46
same,relative viability,RERF-LC-KJ; first compound 2.53 µM,0.543
same,relative viability,RERF-LC-KJ; first compound 8 µM,0.534
same,relative viability,NCI-H441; first compound 0.253 µM,0.383
same,relative viability,NCI-H441; first compound 0.8 µM,0.453
same,relative viability,NCI-H441; first compound 2.53 µM,0.522
same,relative viability,NCI-H441; first compound 8 µM,0.433
